Test results published in patent US20200063214A1, “METHODS OF IDENTIFYING PATIENTS LIKELY TO BENEFIT FROM TREATMENT WITH A TELOMERASE INHIBITOR” (Geron Corporation, priority 2018, published 2020).
Values joined by “and” are separate entries in the source; they are usually repeats but may differ in a detail not shown here. Identical values can stand only once. “Also recorded” adds a separate entry of the source.

Legend:
[1] = tested on: human telomerase; conditions: Asai 2003; Herbert 2005; cited from earlier work
[2] = Phase 2 study: adverse events on treatment; assay type: in vivo, human
From the text: (§1) Diagnosis of primary, post-essential thrombocythemia, or post-polycythemia vera MF was required; other eligibility criteria included measurable splenomegaly (by magnetic resonance imaging [MRI]), active MF-related systemic symptoms and platelet count ≥75×10^9/L. Primary endpoints were: spleen response rate (% achieving ≥35% spleen volume reduction [SVR] by MRI at week 24); and symptom response rate (% achieving ≥50% reduction in total symptom score [TSS] per the Myelofibrosis Symptom Assessment Form (MFSAF) v2 at week 24). Key secondary endpoints included safety, overall survival (OS), treatment response, molecular response, and pharmacokinetic and pharmacodynamic relationships.

[3] = tested on: hTERT RNA expression; experiment: Pharmacodynamics: hTERT RNA level reduction from baseline, whole blood; assay type: in vivo, human; conditions: both arms
Procedure: (§2) Telomerase activity and hTERT was analyzed to evaluate pharmacodynamic effects for imetelstat.

[4] = tested on: intermediate-2 (int-2) or high-risk myelofibrosis (MF); conditions: 33-patient pilot study, Tefferi 2015; cited from earlier work
[5] = tested on: telomerase activity; experiment: Pharmacodynamics: telomerase activity (TA) reduction from baseline in study subjects; assay type: in vivo, human; conditions: for subjects with Telomerase Activity >30% reduction from baseline / subjects with Telomerase Activity >50% reduction from baseline: both arms
From the text: In other embodiments of the invention, telomerase activity and level of hTERT expression in biological samples obtained from patients can be determined to evaluate pharmacodynamic effects and/or monitor patients being treated with a telomerase inhibition. The telomerase activity can be measured using the TRAP (Telomeric Repeat Amplification Protocol) telomerase activity assay. The level of hTERT expression can be determined by measuring the level of hTERT RNA expression in the cells in the biological sample using northern blots or serial analysis of gene expression (SAGE) or other methods.
as §2

[6] = tested on: various cancer cell lines and tumor xenografts in mice; conditions: cited from earlier work
[7] = tested on: intermediate-2 or high-risk myelofibrosis (MF) relapsed/refractory to JAK inhibitor; experiment: Phase 2 study: spleen response (spleen volume reduction, SVR, by MRI at week 24); assay type: in vivo, human
From the text: as §1

[8] = tested on: intermediate-2 or high-risk myelofibrosis (MF) relapsed/refractory to JAK inhibitor; experiment: Phase 2 study: symptom response (total symptom score, TSS, MFSAF v2 at week 24); assay type: in vivo, human; conditions: 9.4 mg/kg
From the text: as §1

[9] = tested on: patients with essential thrombocythemia; conditions: phase 2, essential thrombocythemia; cited from earlier work
[10] = tested on: intermediate-2 or high-risk myelofibrosis (MF) relapsed/refractory to JAK inhibitor; experiment: Phase 2 study: overall survival (OS); assay type: in vivo, human
From the text: as §1

[11] = Spleen Response at wk 24 by IRC: No
[12] = Spleen Response at wk 24 by IRC: Yes
[13] = 9.4 mg/kg, all with baseline TL data, N = 53
[14] = all with baseline TL data, N = 53
[15] = 9.4 mg/kg arm, Non-TN (MUT), second clinical cutoff
[16] = 9.4 mg/kg arm, Triple Negative (TN), second clinical cutoff
[17] = 4.7 MG/KG, all subjects with baseline TL (N 40)
[18] = 4.7 MG/KG, all subjects with baseline TL (N 40), first clinical cutoff
[19] = 4.7 MG/KG, baseline TL <=Median Value
[20] = 4.7 MG/KG, baseline TL >Median Value
[21] = 9.4 MG/KG, all subjects with baseline TL (N 53)
[22] = 9.4 MG/KG, baseline TL <=Median Value
[23] = 9.4 MG/KG, baseline TL >Median Value

Substance: imetelstat: 13-mer oligonucleotide that targets the RNA template of human telomerase; first-in-class telomerase inhibitor (TAGGGTTAGACAA; 5' palmitoyl amidopropyl, thio-phosphoramidate, sodium salt, further chemistry not given here)
- inhibition of telomerase enzymatic activity [1]: potent competitive inhibitor
- Imetelstat-related hepatic toxicities, confirmed by independent Hepatic Review Committee [2]: not observed
- subjects with hTERT>50% reduction from baseline ([3]; TSS Response at wk 24: No): 45/81 (55.6%)
- subjects with hTERT>50% reduction from baseline ([3]; TSS Response at wk 24: Yes): 15/24 (62.5%)
- clinical activity and safety profile [4]: Clinical activity and an acceptable safety profile
- PD effect (telomerase activity and hTERT RNA reduction), 9.4 vs […] ([5]; 9.4 mg/kg arm vs […] arm): dose-dependent PD effect
- subjects achieving TA >=30% decrease from baseline at any timepoint ([5]; 4.7 MG/KG, 34 subjects with baseline): 14 (41.2%)
- subjects achieving TA >=30% decrease from baseline at any timepoint ([5]; 9.4 MG/KG, 45 subjects with baseline): 28 (62.2%)
- subjects with Telomerase Activity >30% reduction from baseline [5, 11]: 41/70 (58.6%)
- subjects with Telomerase Activity >50% reduction from baseline [5, 11]: 34/70 (48.6%)
- subjects with Telomerase Activity >30% reduction from baseline [5, 12]: 3/4 (75%)
- subjects with Telomerase Activity >50% reduction from baseline [5, 12]: 2/4 (50%)
- subjects with Telomerase Activity >30% reduction from baseline ([5]; TSS Response at wk 24: No): 29/56 (51.8%)
- subjects with Telomerase Activity >50% reduction from baseline ([5]; TSS Response at wk 24: No): 24/56 (42.9%)
- subjects with Telomerase Activity >30% reduction from baseline ([5]; TSS Response at wk 24: Yes): 15/18 (83.3%)
- subjects with Telomerase Activity >50% reduction from baseline ([5]; TSS Response at wk 24: Yes): 12/18 (66.7%)
- telomerase activity and cell proliferation [6]: inhibits telomerase activity and cell proliferation
- responses (SVR or TSS) in patients with HMR having greater than one mutation ([7]; 9.4 mg/kg): responses were observed
- rate of response (SVR or TSS), LMR or HMR with only 1 mutation compared to HMR with more than 1 mutations ([7]; 9.4 mg/kg arm, week 24): enriched
- rate of response (SVR or TSS), TN group compared to Non-TN group ([7]; 9.4 mg/kg arm, week 24): enriched
- rate of response (SVR or TSS), shorter baseline TL compared to longer TL ([7]; 9.4 mg/kg arm, week 24): enriched; also recorded: higher rate of response
- subjects with SVR >= 35% at week 24 by IRC, No ([7]; 9.4 mg/kg, Longer TL (>Median value), 24 subjects): 23 (92.7%)
- subjects with SVR >= 35% at week 24 by IRC, No ([7]; 9.4 mg/kg, Shorter TL (<= Median value), 29 subjects): 24 (82.75%)
- subjects with SVR >= 35% at Week 24 by IRC, Yes [7, 13]: (10.5%)
- subjects with SVR >= 35% at week 24 by IRC, No [7, 13]: (89.5%)
- subjects with TSS >= 50% decrease at week 24, No ([8]; Longer TL (>Median value), 24 subjects): 18 (75%)
- subjects with TSS >= 50% decrease at week 24, No ([8]; Shorter TL (<= Median value), 29 subjects): 19 (65.6%)
- subjects with TSS >= 50% decrease at week 24, No [8, 14]: (69.8%)
- subjects with TSS >= 50% decrease at week 24, Yes [8, 14]: (30.2%)
- JAK2 V617F and CALR mutant allele burdens [9]: significant reduction
- platelet-lowering activity [9]: platelet-lowering activity
- OS trend, shorter baseline TL (<= median TL) ([10]; 9.4 mg/kg arm): better OS trend
- Median survival, months (95% CI) [10, 15]: 24.6 (19.7, NE) months
- Percentage of Subjects Who Died [10, 15]: 21/41 (51.2%)
- Median survival, months (95% CI) ([10]; 9.4 mg/kg arm, Non-TN subjects, first clinical cutoff): 23.6 months
- OS HR (Hazard Ratio) (95% CI) ([10]; 9.4 mg/kg arm, Non-TN vs TN, second clinical cutoff): 2.60 (0.89, 7.59)
- Median survival, months (95% CI) ([10]; 9.4 mg/kg arm, TN subjects, first clinical cutoff): not estimable
- Median survival, months (95% CI) [10, 16]: NE (23.2, NE)
- Percentage of Subjects Who Died [10, 16]: 4/16 (25.0%)
- 18-months survival rate % (95% CI) [10, 17]: 68.2 %
- 24-months survival rate % (95% CI) [10, 17]: 39.6 %
- Number of events (OS) [10, 18]: 20
- Overall Survival (months) Median (95% CI) [10, 18]: 22.3 (18.2, NE) months
- 18-months survival rate % (95% CI) [10, 19]: 76.7 %
- 24-months survival rate % (95% CI) [10, 19]: 34.1 %
- Number of events (%) (OS) ([10]; 4.7 MG/KG, baseline TL <=Median Value, first clinical cutoff): 10(25.0%)
- 18-months survival rate % (95% CI) [10, 20]: 61.0 %
- 24-months survival rate % (95% CI) [10, 20]: 46.6 %
- Number of events (%) (OS) ([10]; 4.7 MG/KG, baseline TL >Median Value, first clinical cutoff): 10(25.0%)
- Overall Survival (months) Median (95% CI) ([10]; 4.7 MG/KG, longer baseline TL (>Median Value), first clinical cutoff): 22.3 (16.6, NE) months and 22.3 months
- Overall Survival (months) Median (95% CI) ([10]; 4.7 MG/KG, shorter baseline TL (<=Median Value), first clinical cutoff): 20.3 (17.2, NE) months and 20.3 months
- 18-months survival rate % (95% CI) [10, 21]: 75.9 %
- 24-months survival rate % (95% CI) [10, 21]: 54.2 %
- Number of events (OS) ([10]; 9.4 MG/KG, all subjects with baseline TL (N 53), first clinical cutoff): 18
- 18-months survival rate % (95% CI) [10, 22]: 81.2 %
- 24-months survival rate % (95% CI) [10, 22]: 59.3 %
- Number of events (%) (OS) ([10]; 9.4 MG/KG, baseline TL <=Median Value, first clinical cutoff): 8(15.1%)
- 18-months survival rate % (95% CI) [10, 23]: 69.8 %
- 24-months survival rate % (95% CI) [10, 23]: 47.6 %
- Number of events (%) (OS) ([10]; 9.4 MG/KG, baseline TL >Median Value, first clinical cutoff): 10(18.9%)
- Overall Survival (months) Median (95% CI) ([10]; 9.4 MG/KG, longer baseline TL (>Median Value), first clinical cutoff): 22.8 months
- Overall Survival (months) Median (95% CI) ([10]; 9.4 MG/KG, shorter baseline TL (<=Median Value), first clinical cutoff): not estimable
